Series [1] has as its system hair growth (follicular stimulation; SIRT1 enzyme). The series is described as follows: Database trial: weekly scalp micro injections of SIRT1 activator (NAD+), hair growth followed by trichoscan. The format is in vivo, human. On the procedure: All six patients underwent weekly micro injections to the subcutaneous fatty layer of the affected layer of the scalp using 4 ml of a SIRT1 Activator (NAD+) over a 24 week period using a commercially available Biophymed CE certified U225 mesotherapy device. The SIRT 1 activator was specially prepared from our written protocol.
Patients were followed for safety and tolerability as well as for monitoring differences in hair growth. In order to track progress over time, we employed global photography, and a 60 second patient observational assessment tool based on a standardized 60 second hair count protocol, haircount and trichoscan analysis (Fotofinder); Trichoscan analysis allows us to quantitatively track the following parameters: hair count, hair density, anagen/telogen rates, along with cumulative hair thickness Patients were asked to return to the clinic at 6 weeks, 12 weeks after the intervention.

Series [2] in a line: Applicant's finding on therapeutic activity of NAD+ versus NADH for the disclosed uses. The text has this: As such, Applicant believes NAD+ alone is responsible for the activities disclosed herein. […] Applicant therefore defines NADH as having a negative net NAD+ value.
The conditions of series [3]: cited from earlier work.

`NC(=O)c1ccc[n+]([C@@H]2O[C@H](COP(=O)([O-])OP(=O)(O)OC[C@H]3O[C@@H](n4cnc5c(N)ncnc54)[C@H](O)[C@@H]3O)[C@@H](O)[C@H]2O)c1` [NAD+, Nicotinamide adenine dinucleotide]: the “average increase in hair count” value in series [1] (12 week trichoscan parameters, six patients, weekly micro injections of 4 ml to subcutaneous fatty layer of scalp) stood at 21%. Moreover, in series [1] (overall conclusion of the trial), the “preliminary results of hair growth trial” value was “statistically significant and positive”. Moreover, the “therapeutic effectiveness for the uses disclosed” value in series [2] is on record as “therapeutically effective”. Moreover, the stability of solutions result in series [3] (4° C. and neutral pH) is reported as “stable for about a week”. In addition, the “stability of solutions in acids or alkalis” value in series [3] (acids or alkalis) is “decompose rapidly”.

Take `NC(=O)C1=CN([C@@H]2O[C@H](COP(=O)(O)OP(=O)(O)OC[C@H]3O[C@@H](n4cnc5c(N)ncnc54)[C@H](O)[C@@H]3O)[C@@H](O)[C@H]2O)C=CC1` [NADH, reference compound]: the “therapeutic effectiveness for the uses disclosed” value in series [2] was “entirely inactive”.

Source of the values: patent US20170266218A1, “NAD+ COENZYME FORMULATION AND METHODS OF MAKING AND USING THE SAME” (Steve McNerlin, priority 2016, published 2017).
